Measured values published in patent publication US12077778B2, “Methods of generating human inner ear sensory epithelia and sensory neurons” (INDIANA UNIVERSITY RESEARCH AND TECHNOLOGY CORPORATION, priority 2015, dated 2024).

Legend:
Format in all cases: cell-based, human
[1] = system: Matrigel-embedded hPSC aggregates; test: Otic pit/vesicle formation in Matrigel-embedded day 12 aggregates treated with Wnt agonist
Source text: To promote PAX2 expression and vesicle formation, we began testing various signaling modulators (FIGS. 12A-12C). […] We suspected that extracellular matrix could provide structural support for vesicle formation; thus, we transferred day 12 aggregates to Matrigel droplets in a minimal media (FIG. 4A). In these cultures, we observed radial production of migratory cells, but no vesicle-like structures or PAX2^+ cells were apparent (FIG. 2B). Wnt activation seems to be essential for otic, but not epibranchial development, in vivo and can enhance the production of mouse inner ear organoids in vitro^4,19-21. Remarkably, in 90.9±5.2% of Matrigel®-embedded aggregates treated with a Wnt signaling agonist, CHIR99021, between days 12-16 (n=84, 7 experiments), we witnessed epithelial protrusions reminiscent of the otic pits that precede vesicle development in vivo (FIG. 4C). We determined that the otic pit-like structures were PAX2^+ PAX8^+ SOX2^+ SOX10^+ JAG1^+, confirming otic identity (FIGS. 4D-4H). […] The aggregates were resuspended in ice cold undiluted GFR Matrigel and placed in approximately 25 μl droplets on the surface of a 100 mm bacterial culture plate. After at least 30 minutes of incubation at 37° C., the droplets were bathed in 10 ml of OMNI containing 3 μM CHIR99021. For non-droplet otic induction, the aggregates were washed and plated individually into each well of a 24-well low cell adhesion plate in OMNI containing 3 μM CHIR and 1% GFR Matrigel. After 18 days of differentiation, the CHIR was removed from the medium by washing and the droplet aggregates were moved to a floating culture. Droplets were carefully dislodged using a wide-mouth […] tip and transferred to 75 ml of fresh OMNI in a 125 ml disposable spinner flask (Corning). Spinner flasks were maintained on an in-incubator stir plate (Thermo Scientific) at 65 RPM for up to 180 days of differentiation. For some experiments, the aggregates were maintained in individual wells of 24-well low-cell adhesion plates in 1 ml of OMM on an in-incubator orbital shaker (Thermo Scientific) for up to 140 days. […]

OEPD-induced aggregates = test: qPCR of PAX8/PAX2 expression after WNT and FGF signaling modulation, days 8-10; conditions: one exploratory experiment
Description: Thus, we changed strategies by lengthening the initial culture phase to 12 days (with addition of fresh media on day 8) and testing the effect of transitioning the aggregates to Matrigel™ droplets.
Quantitative PCR. Analysis was performed as previously described on an ABI PRISM 7900HT Sequence Detection System (Applied Biosystems) or a Bio-Rad CFX96 quantitative PCR machine (Bio-Rad)^6. Data were normalized to L27 expression (internal control) and the fold change was calculated relative to Ct values from d0 WA25 aggregates using the ΔΔCt method. Unless stated otherwise, data represent at least 3 separate biological samples from separate experiments. All indicators of statistical significance refer to comparisons between a given condition and the control group. Refer to Table 4 for primer details.

hPS cell aggregates = test: Otic placode-like cell induction by CHIR treatment on day 8; conditions: CHIR 3 μM added on day 8
Description: hPSC differentiation. To start differentiation, hPSC cells were dissociated with StemPro Accutase (Invitrogen) and distributed, 5,000 cells per well, onto 96-well V-bottom plates in E8 medium containing 20 μM Y-27632 (Stemgent) and Normocin. Following a 48 hour incubation, the aggregates were transferred to 96-well U-bottom plates in 100 μl of Chemically Defined Medium (CDM) containing 4 ng ml^−1 FGF-2 (Peprotech), 10 μM SB-431542 (Stemgent), and, for some experiments, 2.5 ng ml^−1 BMP4 (Stemgent), and 2% Growth Factor Reduced (GFR) Matrigel (Corning) to initiate non-neural induction—i.e. differentiation day 0. CDM contained a 50:50 mixture of F-12 Nutrient Mixture with GlutaMAX (Gibco) and Iscove's Modified Dulbecco's Medium with GlutaMAX (IMDM; Gibco) additionally supplemented with 0.5% Bovine Serum Albumin (BSA), 1× Chemically Defined Lipid Concentrate (Invitrogen), […] (Sigma), 15 μg ml^−1 Transferrin (Sigma), 450 μM Mono-Thioglycerol, and Normocin (see Table 1 for a detailed formulation). […] For some experiments, CDM containing a 18 μM CHIR99021 (3 μM final concentration; Stemgent) was added to the pre-existing 125 μl of media in each well—we determined that this treatment is optional for inner ear organoid production, but may improve induction of otic placode-like cells. […]

Compound: Cc1c[nH]c(-c2cnc(NCCNc3ccc(C#N)cn3)nc2-c2ccc(Cl)cc2Cl)n1 [CHIR99021]
- aggregates with epithelial protrusions reminiscent of otic pits ([1]; CHIR99021 between days 12-16, n=84, 7 experiments): 90.9±5.2%
- PAX8+ PAX2+ SOX10+ vesicles evaginating from the outer epithelium ([1]; CHIR between days 12-18): 10-30 vesicles per aggregate
- aggregates with otic vesicle formation ([1]; Matrigel embedding with continued CHIR, days 12-18, >100 aggregates, four independent experiments): > 95%
- PAX2 expression (qPCR) compared to DMSO controls (OEPD-induced aggregates): only had a modest positive or negative impact on PAX2 expression
- PAX2+ cells by day 12 (hPS cell aggregates): induces small patches of PAX2+ cells
